US9163012B2, “Carbamate and urea inhibitors of 11β-hydroxysteroid dehydrogenase 1” (Vitae Pharmaceuticals, Inc., priority 2009, dated 2015)
Read-outs that look alike come from different tables or passages of the source.

Molecular target: 11β-HSD1 (Homo sapiens (Human), UniProt P28845)
Test: Biological Test Example 1: inhibition of a microsomal preparation of 11β-HSD1 (SPA)
Format: biochemical
Conditions: for IC50: Biological Test Example 1
[1] = microsomes from CHO cells overexpressing human 11β-HSD1, read-out: IC50 Range
[2] = read-out: Average % inhibition at 100 nM, Biological Test Example 1, 100 nM compound

Sequence of 11β-HSD1 (P28845 whole entry): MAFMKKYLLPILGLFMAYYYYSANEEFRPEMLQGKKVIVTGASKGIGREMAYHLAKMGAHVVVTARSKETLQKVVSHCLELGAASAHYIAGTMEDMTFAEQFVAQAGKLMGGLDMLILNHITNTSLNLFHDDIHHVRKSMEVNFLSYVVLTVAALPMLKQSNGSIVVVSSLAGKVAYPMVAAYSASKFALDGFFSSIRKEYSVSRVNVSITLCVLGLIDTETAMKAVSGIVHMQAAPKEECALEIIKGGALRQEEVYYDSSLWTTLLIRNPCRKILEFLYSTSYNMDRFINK

Compound | IC50 [1] [nM] | IC50 (read-out: IC50) [nM] | inhibition at 0.1 µM [2] [%] | inhibition at 0.1 µM (read-out: Average % inhibition at 100 nM) [%]
NC(=O)[C@]12CC3CC(C1)[C@@H](OC(=O)N1CCCC1c1ncc(Cl)cn1)C(C3)C2 (some centres unmarked) [EXAMPLE 45, 1-carbamoyl-4-adamantyl 2-(5-chloropyrimidin-2-yl)pyrrolidine-1-carboxylate] | < 100 | 13.5 | 87.5 | 
CC(C)(O)CC1(c2ccccc2)CCN(C(=O)O[C@H]2C3CC4CC2C[C@](C(N)=O)(C4)C3)C1 (stereo partly drawn) [EXAMPLE 49, trans-1-carbamoyl-4-adamantyl 3-(2-hydroxy-2-methylpropyl)-3-phenylpyrrolidine-1-carboxylate] | < 100 | 2.07 | 91.6 | 
O=C(OC1C2CC3CC(C2)CC1C3)N1CCC[C@@H]1c1nc(-c2ccncc2)cs1 (stereo partly drawn) [EXAMPLE 50, (R)-2-adamantyl 2-(4-(pyridin-4-yl)thiazol-2-yl)pyrrolidine-1-carboxylate] | < 100 | 0.91 | 98.2 | 
O=C(OC1C2CC3CC(C2)CC1C3)N1CCC(c2nc(-c3ccncc3)cs2)C1 (centres unmarked) [EXAMPLE 51, 2-adamantyl 3-(4-(pyridin-4-yl)thiazol-2-yl)pyrrolidine-1-carboxylate] | < 100 | 0.7 | 96.8 | 
O=C(OC1C2CC3CC(C2)CC1C3)N1CCC[C@@H]1c1nc(-c2cc[n+]([O-])cc2)cs1 (stereo partly drawn) [EXAMPLE 52, (R)-4-(2-(1-((2-adamantyloxy)carbonyl)pyrrolidin-2-yl)thiazol-4-yl)pyridine 1-oxide] | < 100 | 1.19 | 95.1 | 
Cn1ccc(-c2csc([C@H]3CCCN3C(=O)OC3C4CC5CC(C4)CC3C5)n2)cc1=O (stereo partly drawn) [EXAMPLE 53, (R)-2-adamantyl 2-(4-(1-methyl-2-oxo-1,2-dihydropyridin-4-yl)thiazol-2-yl)pyrrolidine-1-carboxylate] | < 100 | 0.47 | 95.8 | 
NC(=O)[C@]12CC3CC(C1)[C@@H](OC(=O)N1CCC[C@@H]1c1nc(-c4cc[nH]c(=O)c4)cs1)C(C3)C2 [EXAMPLE 54, (R)-trans-1-carbamoyl-4-adamantyl 2-(4-(2-oxo-1,2-dihydropyridin-4-yl)thiazol-2-yl)pyrrolidine-1-carboxylate] | < 100 | 2.67 | 95.4 | 
Cn1ccc(-c2csc([C@H]3CCCN3C(=O)O[C@H]3C4CC5CC3C[C@](C(N)=O)(C5)C4)n2)cc1=O [EXAMPLE 55, (R)-trans-1-carbamoyl-4-adamantyl 2-(4-(1-methyl-2-oxo-1,2-dihydropyridin-4-yl)thiazol-2-yl)pyrrolidine-1-carboxylate] | < 100 | 2.07 | 93.1 | 
Cn1ccc(-c2csc(C3CCN(C(=O)O[C@H]4C5CC6CC4C[C@](C(N)=O)(C6)C5)C3)n2)cc1=O (stereo partly drawn) [EXAMPLE 56, trans-1-carbamoyl-4-adamantyl 3-(4-(1-methyl-2-oxo-1,2-dihydropyridin-4-yl)thiazol-2-yl)pyrrolidine-1-carboxylate] | < 100 | 1.95 | 96.7 | 
Cc1nc2cccc(Cl)c2n1[C@@H]1CCN(C(=O)OC2C3CC4CC2CC(C(N)=O)(C4)C3)C1 (stereo partly drawn) [EXAMPLE 59, (R)-1-carbamoyl-4-adamantyl 3-(7-chloro-2-methyl-1H-benzo[d]imidazol-1-yl)pyrrolidine-1-carboxylate] | < 100 | 1.92 | 96.7 | 
NC(=O)[C@]12CC3CC(C1)[C@@H](OC(=O)N1CC[C@H](n4c(=O)[nH]c5ccccc54)C1)C(C3)C2 [EXAMPLE 60, (S)-trans-1-carbamoyl-4-adamantyl 3-(2-oxo-2,3-dihydro-1H-benzo[d]imidazol-1-yl)pyrrolidine-1-carboxylate] | < 100 | 0.76 | 93.9 | 
NC(=O)[C@]12CC3CC(C1)[C@@H](OC(=O)N1CC[C@@H](n4c(=O)[nH]c5ccccc54)C1)C(C3)C2 [EXAMPLE 61, (R)-trans-1-carbamoyl-4-adamantyl 3-(2-oxo-2,3-dihydro-1H-benzo[d]imidazol-1-yl)pyrrolidine-1-carboxylate] | < 100 | 4.17 | 89.9 | 
Cn1c(=O)n([C@@H]2CCN(C(=O)O[C@H]3C4CC5CC3C[C@](C(N)=O)(C5)C4)C2)c2ccccc21 [EXAMPLE 62, (R)-trans-1-carbamoyl-4-adamantyl 3-(3-methyl-2-oxo-2,3-dihydro-1H-benzo[d]imidazol-1-yl)pyrrolidine-1-carboxylate] | < 100 | 3.07 | 92.7 | 
NC(=O)[C@]12CC3CC(C1)[C@@H](OC(=O)N1CC[C@H](n4c(=O)[nH]c5cc(F)ccc54)C1)C(C3)C2 [EXAMPLE 63, (S)-trans-1-carbamoyl-4-adamantyl 3-(5-fluoro-2-oxo-2,3-dihydro-1H-benzo[d]imidazol-1-yl)pyrrolidine-1-carboxylate] | < 100 | 1.01 | 91.2 | 
N#Cc1ccc2[nH]c(=O)n([C@@H]3CCN(C(=O)O[C@H]4C5CC6CC4C[C@](C(N)=O)(C6)C5)C3)c2c1 [EXAMPLE 65, (R)-trans-1-carbamoyl-4-adamantyl 3-(6-cyano-2-oxo-2,3-dihydro-1H-benzo[d]imidazol-1-yl)pyrrolidine-1-carboxylate] | < 100 | 33.1 | 69 | 
NC(=O)[C@]12CC3CC(C1)[C@@H](OC(=O)N1CC[C@H](n4c(=O)[nH]c5cccc(Cl)c54)C1)C(C3)C2 [EXAMPLE 67, (S)-trans-1-carbamoyl-4-adamantyl 3-(7-chloro-2-oxo-2,3-dihydro-1H-benzo[d]imidazol-1-yl)pyrrolidine-1-carboxylate] | < 100 | 0.68 | 97.7 | 
NC(=O)[C@]12CC3CC(C1)[C@@H](OC(=O)N1CC[C@@H](n4c(=O)[nH]c5cccc(Cl)c54)C1)C(C3)C2 [EXAMPLE 68, (R)-trans-1-carbamoyl-4-adamantyl 3-(7-chloro-2-oxo-2,3-dihydro-1H-benzo[d]imidazol-1-yl)pyrrolidine-1-carboxylate] | < 100 | 0.46 | 96.9 | 
NC(=O)[C@]12CC3CC(C1)[C@@H](OC(=O)N1CC[C@@H](n4c(=O)[nH]c5cc(Cl)cnc54)C1)C(C3)C2 [EXAMPLE 69, (R)-trans-1-carbamoyl-4-adamantyl 3-(6-chloro-2-oxo-1H-imidazo[4,5-b]pyridin-3(2H)-yl)pyrrolidine-1-carboxylate] | < 100 | 1.04 | 97 | 
Cn1c(=O)n([C@H]2CCN(C(=O)O[C@H]3C4CC5CC3C[C@](C(N)=O)(C5)C4)C2)c2ccc(C#N)cc21 [EXAMPLE 70, (S)-trans-1-carbamoyl-4-adamantyl 3-(5-cyano-3-methyl-2-oxo-2,3-dihydro-1H-benzo[d]imidazol-1-yl)pyrrolidine-1-carboxylate] | < 100 |  |  | 91.3
Cn1c(=O)n([C@H]2CCN(C(=O)O[C@H]3C4CC5CC3C[C@](C(N)=O)(C5)C4)C2)c2c(Cl)cccc21 [EXAMPLE 71, (S)-trans-1-carbamoyl-4-adamantyl 3-(7-chloro-3-methyl-2-oxo-2,3-dihydro-1H-benzo[d]imidazol-1-yl)pyrrolidine-1-carboxylate] | < 100 | 0.67 | 96.6 | 
